Results reported in publication PMC7436000, “The Spectrum of Design Solutions for Improving the Activity-Selectivity Product of Peptide Antibiotics against Multidrug-Resistant Bacteria and Prostate Cancer PC-3 Cells” (Molecules, 2020).
pIC50: −log10 of the molar value. In brackets after ≈: the same amount, converted by molar mass. Where two headings read alike, the source gives them in different places. Peptide text beside a SMILES is read from it.

Assays:
[1] = test system: A. baum. clin. isolate; assay type: cell-based, Acinetobacter baumannii
Description: (§1) The American Type Culture Collection (ATCC, Rockville, MD, USA) strains and Escherichia coli MG1655 were used as standard bacterial strains. Gram-negative ATCC strains consisted of Escherichia coli (ATCC 25922), Pseudomonas aeruginosa (ATCC 27853), Acinetobacter baumannii (ATCC 19606), and Klebsiella pneumoniae (ATCC 13883). The only Gram-positive standard strain chosen for testing was Staphylococcus aureus (ATCC 29213). Clinical isolates with confirmed multidrug-resistance phenotype were obtained from different wards of the University Hospital Center, Split, Croatia. We described their origin, antibiograms, and resistance phenotype previously. In the same paper, we described the procedure for antimicrobial susceptibility testing on planktonic cells, using the microdilution method in 96-well microtiter plates.
(§2) Briefly, cells were grown on agar plates and a single colony was sampled to generate a liquid culture (LC) grown overnight at 37 °C. The culture was sampled, resuspended in fresh medium, and allowed to grow at 37 °C, until reaching the mid-exponential phase. Lysogeny broth (LB) was used in the case of the E. coli MG1655 cells. Mueller Hinton (MH) medium was used for all other bacterial strains. Serial 2-fold dilutions of the peptide (64 μM to 0.0625 μM) were prepared from peptide stock solution in PBS, and added to a final load of 5 × 10^5 CFU/mL in 100 μL total volume of medium per well in a 96-well plate (Brand 781660). Bacterial cultures were incubated with peptides for 18 h to 24 h at 37 °C. The minimum inhibitory concentration (MIC) was defined as the lowest concentration of the peptide, at which no visible bacterial growth was observed. The MIC for each of the tested peptides was determined in at least three individual assays under the same laboratory conditions. […] At the end of the incubation period for MIC or MBC, the determination of the OD600 was analyzed.

[2] = test system: human erythrocytes; assay: Hemolysis of human erythrocytes; assay type: cell-based; conditions: for HC10: concentration causing 10% hemolysis, 0.2% Triton = 100%; for HC20: concentration causing 20% hemolysis
Protocol: Fresh blood was obtained from a healthy donor. Blood was stored in a tube containing EDTA at 4 °C and used within 24 h. Before use, 1 mL of blood was centrifuged (400× g, 10 min), and the supernatant was discarded. Moreover, 500 μL cold PBS with EDTA (1 mM) was added, mixed and centrifuged. The supernatant was discarded. Furthermore, 500 μL of cold PBS with EDTA (1 mM) was added, from which a dilution of 1% blood was made. Peptides were prepared in PBS at a 2 × concentration in 100 µL. […] The suspension was incubated at 37 °C for 1 h and centrifuged at 10,000× g for 5 min. […] After centrifugation, the supernatant was added to a 96-well microtiter plate (150–180 μL), and the absorbance was measured at 450 nm, using EnSight Multimode Plate Reader (PerkinElmer, Inc.). Each measurement was done in triplicate. […] We opted to also include the extrapolated HC50 in our results, to permit comparisons with older toxicity results. However, the HC20 measurements were used for ranking the peptides according to their selectivity and overall performance (Figure 1 and Figure 2 and Table 2).

[3] = test system: S. aureus clin. isolate; assay type: cell-based, Staphylococcus aureus
Description: as §1, §2

[4] = test system: K. pneum. clin. isolate; assay type: cell-based, Klebsiella pneumoniae
Description: as §1, §2

[5] = test system: E. coli clin. isolate; assay type: cell-based, Escherichia coli
Description: as §1, §2

[6] = test system: P. aerug. clin. isolate; assay type: cell-based, Pseudomonas aeruginosa
Description: as §1, §2

[7] = test system: Escherichia coli MG1655; assay type: cell-based
Description: as §1, §2

[8] = test system: Acinetobacter baumannii (ATCC 19606); assay type: cell-based
Description: as §1, §2

[9] = test system: Escherichia coli (ATCC 25922); assay type: cell-based
Description: as §1, §2

[10] = test system: Klebsiella pneumoniae (ATCC 13883); assay type: cell-based
Description: as §1, §2

[11] = test system: Staphylococcus aureus (ATCC 29213); assay type: cell-based
Description: as §1, §2

[12] = test system: Pseudomonas aeruginosa (ATCC 27853); assay type: cell-based
Description: as §1, §2

[13] = test system: PC-3 prostate cancer cell line; assay type: cell-based, human
Protocol: (§3) Prostate cancer cells were donated by the University of Split, School of Medicine. Cells were cultured in RMPI-1640 medium, supplemented with 10% FBS, 1% Penicillin-Streptomycin, and 1% L-Glutamine. Human dermal fibroblasts were purchased from Biopredic (France) and cultured in DMEM medium, supplemented with 10% FBS and 1% Penicillin-Streptomycin. All cell lines were maintained in a humidified incubator with 5% CO2 at 37 °C. Cells were detached using the trypsin-EDTA solution and sub-cultured (7000 cells/well) in a 96-well plate overnight. Peptide stock solutions were prepared in PBS, and cancer cells were treated with 2-fold serial dilutions for 24 h at 37 °C, with 5% CO2. The toxicity of 6 selected peptides was assessed by a standard MTT assay. Treated cells were incubated with MTT working solution (0.5 mg/mL Thiazolyl Blue Tetrazolium Bromide) for 4 h at 37 °C with 5% CO2. Precipitated formazan was dissolved in 200 µL DMSO and absorbance was measured at 595 nm with EnSight Multimode Plate Reader (PerkinElmer, Inc.)

[14] = test system: human primary dermal fibroblasts; assay type: cell-based
Protocol: as §3

[15] = multidrug-resistant clinical isolate, broth microdilution, MH medium, 18-24 h, 37 °C
[16] = 0.5% RBC in PBS, 1 h, 37 °C, absorbance 450 nm, triplicate
[17] = broth microdilution, MH medium, 5 × 10^5 CFU/mL, 18-24 h, 37 °C

Structure (SMILES): CC[C@H](C)[C@H](NC(=O)[C@H](CCCCN)NC(=O)[C@H](CCCCN)NC(=O)CNC(=O)[C@@H](NC(=O)[C@@H](N)CCCCN)[C@@H](C)CC)C(=O)N[C@@H](CC(C)C)C(=O)N[C@@H](CCCCN)C(=O)N[C@@H](C)C(=O)N[C@@H](CC(C)C)C(=O)N[C@@H](CCCCN)C(=O)NCC(=O)N[C@@H](C)C(=O)N[C@@H](CC(C)C)C(=O)N[C@@H](CCCCN)C(=O)N[C@@H](CCC(=O)O)C(=O)N[C@@H](CC(C)C)C(=O)N[C@@H](C)C(N)=O [MAPA] (H-KIGKKILKALKGALKELA-NH2)
- MIC (A. baum. clin. isolate) [1, 15]: 4 µM (≈ 7.69 µg/mL)
- HC10 [2, 16]: 1.7 µM
- HC20 [2, 16]: 3 µM
- HC50 ([2]; concentration causing 50% hemolysis, 0.5% RBC in PBS, 1 h, 37 °C, absorbance 450 nm, triplicate): 20 µM
- MIC (S. aureus clin. isolate) [3, 15]: 8 µM (≈ 15.4 µg/mL)
- MIC (K. pneum. clin. isolate) [4, 15]: 8 µM (≈ 15.4 µg/mL)
- MIC (E. coli clin. isolate) ([5]; multidrug-resistant clinical isolate, broth microdilution, MH medium, 5 × 10^5 CFU/mL, 18-24 h, 37 °C): 8 to 16 µM
- MIC (P. aerug. clin. isolate) [6, 15]: 32 µM (≈ 61.5 µg/mL)
- MIC (E. coli MG1655) ([7]; broth microdilution, LB medium, 5 × 10^5 CFU/mL, 18-24 h, 37 °C, at least three assays): 4 µM (≈ 7.69 µg/mL)
- MIC (A. baum. ATCC 19606) [8, 17]: 1 to 2 µM
- MIC (E. coli ATCC 25922) ([9]; broth microdilution, MH medium, 5 × 10^5 CFU/mL, 18-24 h, 37 °C, at least three assays): 1 to 2 µM
- MIC (K. pneum. ATCC 13883) [10, 17]: 8 µM (≈ 15.4 µg/mL)
- MIC (S. aureus ATCC 29213) [11, 17]: 0.5 µM (≈ 0.961 µg/mL)
- PEa(20) = SI/MIC(aureus) ([11]; overall performance, product of SI (20) and 1/MIC, S. aureus ATCC 29213): 12 µM⁻¹
- MIC (P. aerug. ATCC 27853) [12, 17]: 32 to 64 µM
- pIC50 ([13]; MTT assay, 7000 cells/well, 24 h treatment, 37 °C, 5% CO2, absorbance 595 nm, read-out: IC50C (PC-3)): 5.10
- TI (HC20/IC20C) ([13]; human erythrocytes vs PC-3): 1
- TI/ IC50C ([13]; performance, product of TI and anticancer activity (1/IC50C)): 0.39
- (TI/ IC50C) vs. MP1 ([13]; relative performance with respect to MP1 control peptide): 9.3
- TI (IC50F/IC50C) ([13]; therapeutic index, fibroblasts vs PC-3): 3.1
- pIC50 ([14]; MTT assay, 7000 cells/well, 24 h treatment, 37 °C, 5% CO2, absorbance 595 nm, read-out: IC50F (Fibroblasts)): 4.60

Structure (SMILES): CC[C@H](C)[C@H](NC(=O)[C@H](CCCNC(=N)N)NC(=O)[C@H](C)NC(=O)[C@H](Cc1ccc(O)cc1)NC(=O)[C@H](CCCNC(=N)N)NC(=O)[C@H](CCCNC(=N)N)NC(=O)[C@H](Cc1c[nH]c2ccccc12)NC(=O)[C@H](Cc1c[nH]cn1)NC(=O)[C@H](Cc1c[nH]cn1)NC(=O)[C@@H](N)CCCNC(=N)N)C(=O)NCC(=O)N[C@@H](Cc1ccccc1)C(=O)N[C@@H](CCCNC(=N)N)C(=O)N[C@@H](C)C(=O)N[C@H](C(=O)N[C@@H](CCCNC(=N)N)C(=O)N[C@H](C(=O)N[C@H](C(=O)N[C@H](C(=O)NCC(=O)N[C@@H](CCCCN)C(N)=O)[C@@H](C)CC)C(C)C)[C@@H](C)O)C(C)C [T2R1] (H-RHHWRRYARIGFRAVRTVIGK-NH2)
- MIC (A. baum. clin. isolate) [1]: 8 µM (≈ 21.1 µg/mL)
- HC10 [2, 16]: 3 µM
- HC20 [2, 16]: 25 µM
- HC50 * (extrapolated) ([2]; extrapolated, all concentrations tested lysed less than 50% of cells): 7000 * µM
- MIC (S. aureus clin. isolate) ([3]; clin. isolate): 4 µM (≈ 10.5 µg/mL)
- MIC (K. pneum. clin. isolate) [4]: 2 to 4 µM
- MIC (E. coli clin. isolate) ([5]; clin. isolate): 4 µM (≈ 10.5 µg/mL)
- MIC (P. aerug. clin. isolate) [6]: 8 µM (≈ 21.1 µg/mL)
- MIC (E. coli MG1655) ([7]; MG1655): 4 µM (≈ 10.5 µg/mL)
- MIC (A. baum. ATCC 19606) ([8]; ATCC 19606): 2 µM (≈ 5.27 µg/mL)
- MIC (E. coli ATCC 25922) ([9]; ATCC 25922): 1 µM (≈ 2.64 µg/mL)
- MIC (K. pneum. ATCC 13883) ([10]; ATCC 13883): 2 µM (≈ 5.27 µg/mL)
- MIC (S. aureus ATCC 29213) ([11]; ATCC 29213): 0.5 µM (≈ 1.32 µg/mL)
- PEa(20) = SI/MIC(aureus) ([11]; ATCC 29213, 18 h): 100 µM⁻¹
- MIC (P. aerug. ATCC 27853) ([12]; ATCC 27853): 1 µM (≈ 2.64 µg/mL)
- (TI/ IC50C) vs. MP1 ([13]; 24 h): 30
- pIC50 ([13]; 24 h): 5.10
- TI (HC20/IC20C) ([13]; 24 h): 5
- TI (IC50F/IC50C) ([13]; 24 h): 10
- TI/ IC50C ([13]; 24 h): 1.25
- pIC50 ([14]; 24 h): 4.10
